Here are results for 23 compounds from patent publication US20250129104A1, “7H-PYRROLO[2,3-D]PYRIMIDINES AND PREPARATION AND USES THEREOF” (BioSplice Therapeutics, Inc., priority 2021, published 2025).

Assay [1] has as its target recombinant DYRK1A kinase (Homo sapiens (Human), UniProt Q13627). In words: DYRK1A kinase assay (Ser/Thr 18 peptide Z-lyte FRET assay). Type of assay: biochemical. Particulars: DYRK1A kinase activity; 15 μM ATP, 1 h room temperature; method text calls the value IC50. The gist of the method:
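Recombinant human DYRK1A (0.25 μg/mL) with 15 μM ATP and 4 μM Ser/Thr 18 peptide, 1 h at room temperature with compound (11-point, 1:3, 10 μM top, duplicate). Z-lyte development 1 h, then coumarin/fluorescein FRET emission ratio converted to % phosphorylation; IC50 by non-linear regression.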

In assay [2] the test system is Tau phosphorylation at Thr212 (pThr212). In words: tau phosphorylation assay: phosphoTau (Thr212) AlphaLISA in HEK293T cells transfected with DYRK1A and MAPT. Type of assay: cell-based. Particulars: HEK-293T; HEK293T cells transfected with human DYRK1A and MAPT; 18-24 h compound treatment; read-out: pTau (Thr212) EC50. An outline of the steps: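 HEK293T cells transiently co-transfected with human untagged DYRK1A and MAPT (441 aa Tau), reseeded, then treated 18-24 h at 37 °C with compounds (10-point 1:3 series, 20 μM to 1.1 nM final, duplicates). Lysates probed by AlphaLISA with HT7 donor and pThr212 acceptor antibodies; EC50 from curve fit of signal.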
(In general: In Alpha technology, singlet oxygen from a donor bead excites a nearby acceptor bead.)

The structures appear in SMILES notation.

What is called EC50 is the concentration giving half of the maximal effect.

For the compound `c1cc2cc(-c3c[nH]c4nc(NC5CCOCC5)ncc34)ccn2n1` [Compound 1148, 5-(Pyrazolo[1,5-a]pyridin-5-yl)-N-(tetrahydro-2H-pyran-4-yl)-7H-pyrrolo [2,3-d]pyrimidin-2-amine], the concentration giving a half-maximal response (EC50) stood at 4.2 nM in assay [1] and 11 nM in assay [2].

With `CC(C)(F)CNc1ncc2c(-c3ccn4ncc(C(=O)N5CCCCC5)c4c3)c[nH]c2n1` [Compound 1214, (5-(2-((2-Fluoro-2-methylpropyl)amino)-7H-pyrrolo[2,3-d]pyrimidin-5-yl)pyrazolo[1,5-a]pyridin-3-yl)(piperidin-1-yl)methanone], the EC50 in assay [1] amounted to 9.7 nM; in assay [2], 219 nM.

Consider `CN1CCC(Nc2ncc3c(-c4ccn5ncc(C(=O)N6CCCCC6)c5c4)c[nH]c3n2)CC1` [Compound 1233, (5-(2-((1-Methylpiperidin-4-yl)amino)-7H-pyrrolo[2,3-d]pyrimidin-5-yl)pyrazolo[1,5-a]pyridin-3-yl)(piperidin-1-yl)methanone], for which the EC50 amounted to 18.1 nM in assay [1] and 116 nM in assay [2].

On to `O=C(NCC(F)F)c1cnn2ccc(-c3c[nH]c4nc(C5CC5)ncc34)cc12` [Compound 1249, 5-(2-Cyclopropyl-7H-pyrrolo[2,3-d]pyrimidin-5-yl)-N-(2,2-difluoroethyl) pyrazolo[1,5-a]pyridine-3-carboxamide], for which the EC50 was determined as 1.6 nM in assay [1] and 27 nM in assay [2].

`O=C(NCC(F)F)c1cnn2ccc(-c3c[nH]c4nc(C5CCC5)ncc34)cc12` [Compound 1250, 5-(2-Cyclobutyl-7H-pyrrolo[2,3-d]pyrimidin-5-yl)-N-(2,2-difluoroethyl) pyrazolo[1,5-a]pyridine-3-carboxamide]: the EC50 in assay [1] worked out at 14.6 nM; in assay [2], 141 nM.

For the compound `CC(C)(F)CNC(=O)c1cnn2ccc(-c3c[nH]c4nc(C5CC5)ncc34)cc12` [Compound 1292, 5-(2-Cyclopropyl-7H-pyrrolo[2,3-d]pyrimidin-5-yl)-N-(2-fluoro-2-methylpropyl)pyrazolo[1,5-a]pyridine-3-carboxamide], the concentration for a half-maximal effect (EC50) came to 2.3 nM in assay [1] and 54 nM in assay [2].

Consider `C[C@@H](NC(=O)c1cnn2ccc(-c3c[nH]c4nc(C5CC5)ncc34)cc12)C(F)(F)F` [Compound 1335, (R)-5-(2-Cyclopropyl-7H-pyrrolo[2,3-d]pyrimidin-5-yl)-N-(1,1,1-trifluoropropan-2-yl)pyrazolo[1,5-a]pyridine-3-carboxamide], for which the figures for the EC50 in assay [1] and in assay [2] were 17.7 nM and 236 nM, respectively.

`O=C(NC1CC(F)(F)C1)c1cnn2ccc(-c3c[nH]c4nc(C5CC5)ncc34)cc12` [Compound 1378, 5-(2-Cyclopropyl-7H-pyrrolo[2,3-d]pyrimidin-5-yl)-N-(3,3-difluorocyclobutyl)pyrazolo[1,5-a]pyridine-3-carboxamide]: the values for the concentration for a half-maximal effect (EC50) in assay [1] and in assay [2] were 2.6 nM and 604 nM, respectively.

Consider `CN1CCC(NC(=O)c2cnn3ccc(-c4c[nH]c5nc(C6CCC6)ncc45)cc23)CC1` [Compound 1509, 5-(2-Cyclobutyl-7H-pyrrolo[2,3-d]pyrimidin-5-yl)-N-(1-methylpiperidin-4-yl)pyrazolo[1,5-a]pyridine-3-carboxamide], for which the EC50 in assay [1] was found to be 39.9 nM; in assay [2] it was 7020 nM.

With `CN1CCC(NC(=O)c2cnn3ccc(-c4c[nH]c5nc(NCC(C)(C)C)ncc45)cc23)CC1` [Compound 1516, N-(1-Methylpiperidin-4-yl)-5-(2-(neopentylamino)-7H-pyrrolo[2,3-d]pyrimidin-5-yl)pyrazolo[1,5-a]pyridine-3-carboxamide], the EC50 in assay [1] came out at 5.8 nM; in assay [2] it was 34 nM.

As to `CN1CCC(NC(=O)c2cnn3ccc(-c4c[nH]c5nc(NCC6(F)CCCCC6)ncc45)cc23)CC1` [Compound 1535, 5-(2-(((1-Fluorocyclohexyl)methyl)amino)-7H-pyrrolo[2,3-d]pyrimidin-5-yl)-N-(1-methylpiperidin-4-yl)pyrazolo[1,5-a]pyridine-3-carboxamide], the EC50 was 1.2 nM in assay [1] and 24 nM in assay [2].

`CN1CCC(Nc2ncc3c(-c4ccn5ncc(C(=O)Nc6cccnc6)c5c4)c[nH]c3n2)CC1` [Compound 1624, 5-(2-((1-Methylpiperidin-4-yl)amino)-7H-pyrrolo[2,3-d]pyrimidin-5-yl)-N-(pyridin-3-yl)pyrazolo[1,5-a]pyridine-3-carboxamide]: the figures for the EC50 in assay [1] and in assay [2] were 3.7 nM and 3910 nM, respectively.

As for `CC(C)(F)CNc1ncc2c(-c3ccn4nccc4n3)c[nH]c2n1` [Compound 1648, N-(2-Fluoro-2-methylpropyl)-5-(pyrazolo[1,5-a]pyrimidin-5-yl)-7H-pyrrolo [2,3-d]pyrimidin-2-amine], the EC50 in assay [1] came out at 3.9 nM; in assay [2], 152 nM.

`CC1(CNc2ncc3c(-c4ccn5nccc5n4)c[nH]c3n2)CC1` [Compound 1658, N-((1-Methylcyclopropyl)methyl)-5-(pyrazolo[1,5-a]pyrimidin-5-yl)-7H-pyrrolo[2,3-d]pyrimidin-2-amine]: the EC50 in assay [1] is 10.5 nM; in assay [2], 120 nM.

With `FC(F)(F)C1(CNc2ncc3c(-c4ccn5nccc5n4)c[nH]c3n2)CC1` [Compound 1659, 5-(Pyrazolo[1,5-a]pyrimidin-5-yl)-N-((1-(trifluoromethyl)cyclopropyl)methyl)-7H-pyrrolo[2,3-d]pyrimidin-2-amine], the figures for the EC50 in assay [1] and in assay [2] were 19.9 nM and 141 nM, respectively.

Regarding `FC1(CNc2ncc3c(-c4ccn5nccc5n4)c[nH]c3n2)CCC1` [Compound 1662, N-((1-Fluorocyclobutyl)methyl)-5-(pyrazolo[1,5-a]pyrimidin-5-yl)-7H-pyrrolo[2,3-d]pyrimidin-2-amine], the figures for the EC50 in assay [1] and in assay [2] were 13.4 nM and 103 nM, respectively.

For the compound `CO[C@H]1CC[C@@H](Nc2ncc3c(-c4ccn5nccc5n4)c[nH]c3n2)CC1` [Compound 1664, N-(cis-4-Methoxycyclohexyl)-5-(pyrazolo[1,5-a]pyrimidin-5-yl)-7H-pyrrolo[2,3-d]pyrimidin-2-amine], the results for the EC50 in assay [1] and in assay [2] were 6 nM and 56 nM, respectively.

Take `CN1CCN(c2cc(Nc3ncc4c(-c5ccc6c(c5)C(C)(C)CNC6=O)c[nH]c4n3)ccn2)CC1` [Compound 1849, 4,4-Dimethyl-6-(2-((2-(4-methylpiperazin-1-yl)pyridin-4-yl)amino)-7H-pyrrolo[2,3-d]pyrimidin-5-yl)-3,4-dihydroisoquinolin-1(2H)-one]: the figures for the concentration giving a half-maximal response (EC50) in assay [1] and in assay [2] were 2.1 nM and 168 nM, respectively.

For the compound `CO[C@H]1CC[C@@H](Nc2ncc3c(-c4ccc5ncccc5c4)c[nH]c3n2)CC1` [Compound 1885, N-(cis-4-Methoxycyclohexyl)-5-(quinolin-6-yl)-7H-pyrrolo[2,3-d]pyrimidin-2-amine], the values for the EC50 in assay [1] and in assay [2] were 9 nM and 2 nM, respectively.

In the case of `CN1CCC(Nc2ncc3c(-c4ccc5ncccc5c4)c[nH]c3n2)CC1` [Compound 1888, N-(1-Methylpiperidin-4-yl)-5-(quinolin-6-yl)-7H-pyrrolo[2,3-d]pyrimidin-2-amine], the EC50 in assay [1] is 3.1 nM; in assay [2], 22 nM.

As for `CC(C)(F)CNc1ncc2c(-c3ccc4nccnc4c3)c[nH]c2n1` [Compound 1913, N-(2-Fluoro-2-methylpropyl)-5-(quinoxalin-6-yl)-7H-pyrrolo[2,3-d]pyrimidin-2-amine], the EC50 in assay [1] was 4.9 nM; in assay [2], 47 nM.

With `FC1(F)CCC(Nc2ncc3c(-c4ccc5nccnc5c4)c[nH]c3n2)CC1` [Compound 1928, N-(4,4-Difluorocyclohexyl)-5-(quinoxalin-6-yl)-7H-pyrrolo[2,3-d]pyrimidin-2-amine], the 50% effective concentration (EC50) in assay [1] amounted to 3.7 nM; in assay [2], 111 nM.

For `CO[C@H]1CC[C@@H](Nc2ncc3c(-c4ccc5nccnc5c4)c[nH]c3n2)CC1` [Compound 1929, N-(cis-4-Methoxycyclohexyl)-5-(quinoxalin-6-yl)-7H-pyrrolo[2,3-d]pyrimidin-2-amine], the EC50 was determined as 5.3 nM in assay [1] and 10 nM in assay [2].
